According to ChEMBL document CHEMBL3244021, “Structure and biological activity of (-)-[3H]dihydroalprenolol, a radioligand for studies of beta-adrenergic receptors” (J Med Chem, 1977):

Tests used:
[1] = Antagonist activity at beta adrenergic receptor in frog erythrocyte membrane assessed as inhibition of (-)-isoproterenol-stimulated adenylate cyclase activity measured as [32P]-cAMP level; type: cell membranes, Anura
[2] = Displacement of (-)-[3H]dihydroalprenolol from beta adrenergic receptor in frog erythrocyte membrane after 10 mins by liquid scintillation counting analysis; type: cell membranes, Anura
[3] = Binding affinity to beta adrenergic receptor in frog erythrocyte membrane after 10 mins by liquid scintillation counting analysis; type: cell membranes, Anura
[4] = Stability of the compound; type: physicochemical

| Kd [1] [nM] | Kd [2] [nM] | Kd [3] [nM] | Stability [4] | SMILES |
| --- | --- | --- | --- | --- |
| 4 | 2.5 |  |  | C=CCc1ccccc1OCC(O)CNC(C)C (configuration not stated) |
| 4 | 2.5 |  |  | CCCc1ccccc1OCC(O)CNC(C)C (single isomer, unassigned; (-)) |
| 4 |  | 3 | Stable | [3H]C([3H])([3H])C([3H])([3H])Cc1ccccc1OCC(O)CNC(C)C (single isomer, unassigned; (-)) |
